Data on 1 substance can be found in patent US20200069775A1, “BRAIN OSTEOCALCIN RECEPTOR AND COGNITIVE DISORDERS” (The Trustees of Columbia University in the City of New York, priority 2017, published 2020).

In experiment [1] the test system is CREB phosphorylation in the hippocampus. As to the kind of experiment: Stereotactic injection into hippocampus, pCREB and PKA immunofluorescence. The class given is in vivo, mouse. The note with it: 16 h post injection. The text has this:
The resulting effects on animal behavior of direct recombinant uncarboxylated osteocalcin delivery raise the question of the molecular mechanism of action of osteocalcin in the brain. Given that osteocalcin acts through a G-protein coupled receptor pathway in other tissues, e.g., pancreas and testis, the phosphorylated CREB levels in the hippocampi of Ocn−/− and WT animals was checked. […] The hippocampus is essential for optimal spatial learning and memory in rodents. It was then asked whether the acute stereotactic injection of 10 ng of recombinant uncarboxylated osteocalcin directly into the hippocampus of WT animals would affect pCREB levels.

The next experiment concerns the target T1, Gpr158 (Mus musculus, UniProt Q8C419).
T1 sequence (Q8C419 25-1200): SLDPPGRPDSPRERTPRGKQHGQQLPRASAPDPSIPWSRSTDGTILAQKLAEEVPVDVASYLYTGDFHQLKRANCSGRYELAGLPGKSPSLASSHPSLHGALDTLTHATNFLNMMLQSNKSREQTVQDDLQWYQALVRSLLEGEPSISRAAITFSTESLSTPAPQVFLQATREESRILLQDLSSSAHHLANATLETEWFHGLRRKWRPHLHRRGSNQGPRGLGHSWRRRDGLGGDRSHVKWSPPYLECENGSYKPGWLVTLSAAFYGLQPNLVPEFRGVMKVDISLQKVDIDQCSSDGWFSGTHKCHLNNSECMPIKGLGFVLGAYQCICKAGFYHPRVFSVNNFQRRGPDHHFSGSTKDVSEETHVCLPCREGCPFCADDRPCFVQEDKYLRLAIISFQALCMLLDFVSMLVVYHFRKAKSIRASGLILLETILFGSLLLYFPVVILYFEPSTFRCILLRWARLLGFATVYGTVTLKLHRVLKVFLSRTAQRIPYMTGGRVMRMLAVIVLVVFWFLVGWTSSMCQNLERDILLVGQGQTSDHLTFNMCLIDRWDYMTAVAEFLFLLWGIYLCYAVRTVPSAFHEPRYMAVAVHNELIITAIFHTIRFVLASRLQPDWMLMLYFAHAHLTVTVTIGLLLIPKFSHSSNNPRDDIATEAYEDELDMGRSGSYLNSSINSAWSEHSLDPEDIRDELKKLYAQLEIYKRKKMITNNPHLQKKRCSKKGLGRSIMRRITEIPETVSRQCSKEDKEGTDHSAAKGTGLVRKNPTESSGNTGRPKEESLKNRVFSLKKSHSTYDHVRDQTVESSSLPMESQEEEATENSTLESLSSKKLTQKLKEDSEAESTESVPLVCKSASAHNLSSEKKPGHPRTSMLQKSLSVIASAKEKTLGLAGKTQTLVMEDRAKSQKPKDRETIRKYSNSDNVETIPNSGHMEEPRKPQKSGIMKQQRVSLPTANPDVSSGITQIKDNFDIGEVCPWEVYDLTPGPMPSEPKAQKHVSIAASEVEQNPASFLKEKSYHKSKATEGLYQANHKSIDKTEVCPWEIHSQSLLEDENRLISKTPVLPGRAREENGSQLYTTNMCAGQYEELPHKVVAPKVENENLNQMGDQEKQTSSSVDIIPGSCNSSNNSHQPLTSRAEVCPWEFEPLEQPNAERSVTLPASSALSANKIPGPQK
As to the kind of experiment: Bdnf expression (qPCR) in WT and Gpr158−/− hippocampal neurons. The class given is cell-based. On the set-up: visually identified pyramidal neurons in the CA3 area of the hippocampus; from tissue; host or cells: coronal hippocampal slices of 3-4 week old male WT and Gpr158-/- mice. The settings on record: WT vs Gpr158−/− hippocampal neurons, 4 hours. Here is the method: FIG. 15. Function analysis of Osteocalcin signaling through Gpr158. (Panel a) IP1 accumulation in WT and Gpr158−/− hippocampal neurons (DIV 15) treated with either vehicle or osteocalcin for 1 hour. Glutamate was used as a positive control. (Panel b) Expression (qPCR) of Th and Bdnf in the midbrain of 6 month-old Gpr158+/− and WT littermates. (Panel c) Expression (qPCR) of Bdnf in WT and Gpr158−/− hippocampal neurons (DIV 15) treated with either vehicle or osteocalcin for 4 hours. (Panel d) Osteocalcin's effect on spontaneous action potential (AP) frequency in CA3 pyramidal neurons in WT (4 of 4 cells) and Gpr158−/− mice. The bars above the recording traces indicate the application of osteocalcin. […] Number of entries and time spent (s) in the open arms were scored. […] Time spent in the lit compartment and open arms was measured. […] Total ambulation (cm) and time spent in the center of the arena (s) were measured. […] Preference index (time spent with novel object/total exploration time) was measured. […] Preference index (time spent with novel object/total exploration time) was measured. […] Percent freezing 24 hours after training was measured. […]
RNA was isolated from brain tissue using TRIZOL (Invitrogen). cDNA synthesis was performed following standard protocol, q-PCR analyses were done using specific quantitative PCR primers (sequences available upon request), and expressed relative to Gapdh levels. […]
For orientation: In qPCR the cycle at which signal appears reflects the starting amount.

As to “osteocalcin: Recombinant osteocalcin bacterially produced, cleaved from the GST subunit; completely undercarboxylated at all three sites; full-length mouse osteocalcin (YLGASVPSPDPLEPTREQCELNPACDELSDQYGLKTAYKRIYGITI)”, the pCREB staining entry in experiment [1] (10 ng into hippocampus of WT animals, vs PBS hemisphere) was “pCREB staining was increased”. In addition, in experiment [1] (10 ng into hippocampus, injected hemisphere), the PKA staining entry is “widespread and dramatic increase in PKA staining”. Further, the Bdnf expression result with Gpr158 was “increased Bdnf expression in WT significantly more than in Gpr158−/− hippocampal neurons”.
